Measured values: ChEMBL document CHEMBL1131799, “Polyunsaturated fatty acid anilides as inhibitors of acyl-coA: cholesterol acyltransferase (ACAT)” (Bioorg Med Chem Lett, 1999)

What was measured:
[1] = target: T1, Acyl-CoA:cholesterol acyltransferase (Oryctolagus cuniculus, UniProt Q95214); experiment: Compound was tested for inhibitory activity against ACAT from rabbit adrenal gland; format: tissue-based
T1 sequence (Q95214 whole entry): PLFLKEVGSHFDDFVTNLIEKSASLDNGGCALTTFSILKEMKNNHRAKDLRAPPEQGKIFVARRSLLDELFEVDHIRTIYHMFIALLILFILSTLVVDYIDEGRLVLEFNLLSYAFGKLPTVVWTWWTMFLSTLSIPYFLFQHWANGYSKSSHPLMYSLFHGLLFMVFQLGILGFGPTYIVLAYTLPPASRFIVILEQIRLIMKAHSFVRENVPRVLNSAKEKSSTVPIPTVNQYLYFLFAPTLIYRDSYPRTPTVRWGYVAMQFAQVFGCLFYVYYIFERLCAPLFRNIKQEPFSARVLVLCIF

O-acyltransferase = O-acyltransferase (Oryctolagus cuniculus, UniProt G1SFD9); experiment: Compound was tested for inhibitory activity against ACAT from rabbit intestine; format: tissue-based
Chain of O-acyltransferase (G1SFD9 1-524): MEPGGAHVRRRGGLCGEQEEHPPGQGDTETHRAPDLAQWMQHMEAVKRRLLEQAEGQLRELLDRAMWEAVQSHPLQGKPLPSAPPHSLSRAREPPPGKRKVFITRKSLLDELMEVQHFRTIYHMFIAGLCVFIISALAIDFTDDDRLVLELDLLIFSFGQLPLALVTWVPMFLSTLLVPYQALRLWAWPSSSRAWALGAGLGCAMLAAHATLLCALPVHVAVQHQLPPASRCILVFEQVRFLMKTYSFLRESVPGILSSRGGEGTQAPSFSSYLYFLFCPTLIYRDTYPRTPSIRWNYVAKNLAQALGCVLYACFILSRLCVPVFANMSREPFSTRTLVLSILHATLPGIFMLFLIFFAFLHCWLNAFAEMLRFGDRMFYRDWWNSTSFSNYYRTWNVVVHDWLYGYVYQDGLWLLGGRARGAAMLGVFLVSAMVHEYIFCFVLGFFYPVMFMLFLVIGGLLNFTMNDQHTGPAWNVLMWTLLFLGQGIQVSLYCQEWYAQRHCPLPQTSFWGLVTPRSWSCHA

[2] = target: T1, Acyl-CoA:cholesterol acyltransferase; experiment: Compound was tested for inhibitory activity against ACAT from rabbit liver

| IC50 [1] | IC50 [2] | Compound | IC50 (O-acyltransferase) |
| --- | --- | --- | --- |
| 554 nM | 15 nM | CCCCCCCCCCCCCC(=S)Nc1c(C(C)C)cccc1C(C)C | 6 nM |
| 1950 nM | 191 nM | CCCCCCCCCCC(C)(C)C(=O)Nc1c(OC)cc(OC)cc1OC [CL-976] | – |

| Compound | IC50 [1] | IC50 [2] | IC50 (O-acyltransferase) |
| --- | --- | --- | --- |
| C/C=C/C/C=C/C/C=C/C/C=C/C/C=C/C/C=C/CCCC(=O)Nc1c(C(C)C)cccc1C(C)C | 228 nM | 56 nM | 45 nM |
